Reference: ChEMBL document CHEMBL3638861, “Phenyl-substituted 2-imino-3-methyl pyrrolo pyrimidinone compounds as BACE-1 inhibitors, compositions, and their use” (2013)

Molecular target: Beta-secretase 1 (Homo sapiens, UniProt P56817)
Assay: Time-Resolved FRET Assay: A homogeneous time-resolved FRET assay was used to determine IC50 values for inhibitors of the soluble human BACE1 catalytic domain. The assay monitored the increase of 620nm fluorescence that resulted from BACE1 cleavage of an APPswedish APPswe mutant peptide FRET substrate (QSY7-EISEVNLDAEFC-Europium-amide).

Chain of Beta-secretase 1 (P56817 whole entry, the tested form may be a part): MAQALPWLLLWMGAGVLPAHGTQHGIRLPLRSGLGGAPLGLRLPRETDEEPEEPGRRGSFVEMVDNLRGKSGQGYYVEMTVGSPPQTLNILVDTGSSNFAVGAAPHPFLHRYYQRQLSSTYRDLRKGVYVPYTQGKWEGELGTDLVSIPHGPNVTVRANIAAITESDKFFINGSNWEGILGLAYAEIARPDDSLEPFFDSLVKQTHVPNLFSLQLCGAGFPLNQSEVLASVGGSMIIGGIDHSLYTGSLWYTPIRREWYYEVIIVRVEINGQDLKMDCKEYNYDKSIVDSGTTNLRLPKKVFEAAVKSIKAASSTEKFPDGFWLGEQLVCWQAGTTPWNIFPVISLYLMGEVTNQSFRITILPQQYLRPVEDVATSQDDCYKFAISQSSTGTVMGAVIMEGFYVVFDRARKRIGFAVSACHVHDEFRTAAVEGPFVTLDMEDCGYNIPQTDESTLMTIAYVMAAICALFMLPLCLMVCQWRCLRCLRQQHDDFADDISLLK

## COc1nc(N2C[C@H]3C(=O)N(C)C(=N)N[C@@]3(c3cc(F)ccc3Cl)C2)nc(C)c1F
  IC50: 42 nM
  Ki: 8.9 nM
